ChEMBL document CHEMBL1201862, “PubChem BioAssay data set” (2004)
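Tested at 5 concentrations; 48 h exposure; 96-well plates; endpoints linearly interpolated, else capped at highest concentration. Abbreviation: GI50, concentration required for 50% inhibition of growth.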 Active and inactive are the calls of the source. Rule as the data show it: active = GI50 up to about 1.1 µM and inactive = higher.

How the values were obtained:
Experiment in all cases: growth of human tumour cells (NCI), 48 h
[1] = tested on: IGROV-1
[2] = tested on: NCI-H226
[3] = tested on: HCC 2998
[4] = tested on: HCT-116
[5] = tested on: A549
[6] = tested on: PC-3
[7] = tested on: CAKI-1
[8] = tested on: HOP-62
[9] = tested on: Malme-3M
[10] = tested on: RPMI-8226
[11] = tested on: SNB-19
[12] = tested on: SF-295
[13] = tested on: UO-31
[14] = tested on: M14
[15] = tested on: UACC-257
[16] = tested on: COLO 205
[17] = tested on: SR
[18] = tested on: NCI-H460
[19] = tested on: SK-MEL-2
[20] = tested on: HOP-92

Measured: GI50

N=c1c2ccccc2nc2oc3cc([N+](=O)[O-])ccc3n12
inactive: [1] 27.4 µM | [2] 15 µM | [3] > 100 µM | [4] 25.6 µM | [5] 40.1 µM | [6] 54.2 µM | [7] 25.4 µM | [8] 18.1 µM | [9] 25.9 µM | [10] > 100 µM | [11] 24.9 µM | [12] 19.3 µM | [13] 16.6 µM | [14] > 100 µM | [15] > 100 µM | [16] > 100 µM | [17] > 100 µM | [18] 36.9 µM | [19] 94.2 µM

CN1CCC2(CC1)C(=O)N(N1CCCCCC1)C(=O)N2c1ccccc1
inactive: [1] > 100 µM | [2] > 100 µM | [3] > 100 µM | [4] 18.2 µM | [5] > 100 µM | [6] 77.8 µM | [7] > 100 µM | [8] > 100 µM | [9] > 100 µM | [10] > 100 µM | [11] > 100 µM | [12] > 100 µM | [13] > 100 µM | [14] > 100 µM | [15] > 100 µM | [16] > 100 µM | [17] > 100 µM | [18] > 100 µM | [19] > 100 µM

O=c1c(C(c2ccc3ccccc3c2)c2c(O)oc3cc(O)ccc3c2=O)c(O)oc2cc(O)ccc12
inactive: [1] > 100 µM | [2] > 100 µM | [20] 75 µM | [3] > 100 µM | [4] > 100 µM | [5] > 100 µM | [6] > 100 µM | [7] > 100 µM | [8] > 100 µM | [10] 27.5 µM | [11] 11.2 µM | [12] > 100 µM | [13] 5.22 µM | [14] > 100 µM | [15] > 100 µM | [16] > 100 µM | [17] 26.6 µM | [18] 41.3 µM | [19] > 100 µM

CNC(C)C(O)c1ccc2oc3cc(=O)c4ccccc4c-3nc2c1 (stereo not drawn)
inactive: [1] 31.5 µM | [20] 94.6 µM | [3] 27.9 µM | [4] 5.24 µM | [5] 5.13 µM | [6] 32.6 µM | [7] 16.1 µM | [8] 5.82 µM | [9] 5.64 µM | [10] 18.9 µM | [11] 6.44 µM | [12] 4.59 µM | [13] 13.8 µM | [14] 4.65 µM | [15] 5.37 µM | [16] 35.9 µM | [18] 4.67 µM | [19] 4.69 µM

CCOC(=O)/C=C(\N=P(c1ccccc1)(c1ccccc1)c1ccccc1)C(F)(F)C(F)(F)C(F)(F)C(F)(F)C(F)(F)F
inactive: [1] > 100 µM | [20] > 100 µM | [3] > 100 µM | [4] > 100 µM | [5] > 100 µM | [6] > 100 µM | [7] > 100 µM | [8] > 100 µM | [9] > 100 µM | [10] > 100 µM | [11] > 100 µM | [12] > 100 µM | [13] > 100 µM | [14] > 100 µM | [15] > 100 µM | [16] > 100 µM | [17] > 100 µM | [18] > 100 µM | [19] > 100 µM

O=C(O)CC(Cc1ccc2c(c1)OCO2)C(=O)O (stereo not drawn)
inactive: [1] > 100 µM | [2] > 100 µM | [20] > 100 µM | [3] > 100 µM | [4] > 100 µM | [5] > 100 µM | [6] > 100 µM | [8] > 100 µM | [9] > 100 µM | [10] > 100 µM | [11] > 100 µM | [12] > 100 µM | [13] > 100 µM | [14] > 100 µM | [15] > 100 µM | [16] > 100 µM | [17] > 100 µM | [18] > 100 µM | [19] > 100 µM

CS(=O)(=O)OCC(CCl)(CCl)CCl
inactive: [2] > 100 µM | [20] > 100 µM | [3] > 100 µM | [4] > 100 µM | [5] > 100 µM | [6] > 100 µM | [11] > 100 µM | [12] > 100 µM | [13] > 100 µM | [14] > 100 µM | [15] > 100 µM | [16] > 100 µM | [17] > 100 µM | [18] > 100 µM

CCOC(=O)CCC(NC(=O)OCc1ccccc1)C(=O)NC(CCC(=O)OCC)C(=O)NC(CCC(=O)OCC)C(=O)NC(CCC(=O)OCC)C(=O)NC(CCC(=O)OCC)C(=O)NC(CCC(=O)OCC)C(=O)NC(CCC(=O)OCC)C(=O)OCC (stereo not drawn)
inactive: [2] > 100 µM | [3] 26.1 µM | [4] > 100 µM | [5] > 100 µM | [6] > 100 µM | [7] > 100 µM | [8] > 100 µM | [9] 90.6 µM | [10] > 100 µM | [11] > 100 µM | [13] 79.4 µM | [14] > 100 µM | [15] > 100 µM | [17] 70.8 µM | [18] > 100 µM | [19] > 100 µM

Cc1cc(C)c(/C=C(\C(=C/c2c(C)cc(C)cc2C)[N+](=O)[O-])[N+](=O)[O-])c(C)c1
inactive: [1] > 100 µM | [20] > 100 µM | [3] > 100 µM | [4] > 100 µM | [5] > 100 µM | [6] > 100 µM | [7] > 100 µM | [8] > 100 µM | [10] 1.31 µM | [11] > 100 µM | [12] > 100 µM | [13] > 100 µM | [14] > 100 µM | [15] > 100 µM | [16] > 100 µM | [17] 30.4 µM | [18] 46.7 µM | [19] > 100 µM

CC(=O)Oc1ccc(-c2cc3ccccc3oc2=O)cc1
inactive: [2] > 100 µM | [20] 60.8 µM | [3] > 100 µM | [4] > 100 µM | [5] > 100 µM | [6] > 100 µM | [8] > 100 µM | [9] > 100 µM | [10] > 100 µM | [11] > 100 µM | [12] 43.9 µM | [13] > 100 µM | [14] > 100 µM | [15] > 100 µM | [16] > 100 µM | [17] 56.9 µM | [18] > 100 µM | [19] > 100 µM

Cc1c2ccccc2nc2[nH]c3ccncc3c12
inactive: [1] 29.5 µM | [20] 33 µM | [5] 30.7 µM | [6] 38.3 µM | [7] 25.2 µM | [8] 25.6 µM | [9] 31 µM | [10] 21 µM | [11] 36.1 µM | [12] 31.6 µM | [13] 25.9 µM | [14] 32.8 µM | [15] 52.1 µM | [16] 40.4 µM | [17] 26.9 µM | [18] 15.4 µM | [19] 40.7 µM

CCCCN(CCCC)C1=Nc2ccccc2-n2c(nnc2C(=O)OCC)C1
inactive: [1] 35.9 µM | [2] 50.6 µM | [20] 33.6 µM | [3] 38.8 µM | [4] 27.4 µM | [5] 33.9 µM | [6] 17.4 µM | [7] 49.9 µM | [8] 95.1 µM | [9] 24.6 µM | [10] 26.1 µM | [11] 91.2 µM | [12] 44.7 µM | [13] 31.8 µM | [14] 44.3 µM | [15] 17.4 µM | [16] 18.5 µM | [17] 19.1 µM | [18] 22.7 µM

COC(=O)C1(NC(=O)C(CC(=O)OCc2ccccc2)NC(=O)OCc2ccccc2)CCCCCCC1 (stereo not drawn)
inactive: [1] 30 µM | [2] 40.3 µM | [20] 42.9 µM | [4] 27.9 µM | [5] 32.1 µM | [6] 7.96 µM | [7] 31.1 µM | [8] > 100 µM | [10] 5.56 µM | [11] 49.5 µM | [12] 31.6 µM | [13] 35.6 µM | [14] 34.4 µM | [16] 25.8 µM | [17] 5.35 µM | [18] 30.7 µM

c1ccc(CN[C@]23C4C5CC6C7C5C2C7[C@@](NCc2ccccc2)(C64)N3Cc2ccccc2)cc1 (stereo partly drawn)
inactive: [1] > 100 µM | [2] > 100 µM | [20] > 100 µM | [4] > 100 µM | [5] > 100 µM | [6] > 100 µM | [7] > 100 µM | [8] > 100 µM | [9] > 100 µM | [10] > 100 µM | [11] > 100 µM | [12] > 100 µM | [13] > 100 µM | [14] > 100 µM | [15] > 100 µM | [16] > 100 µM | [17] 3.94 µM | [18] > 100 µM | [19] > 100 µM

O=c1[nH]nc(NNc2ccccc2)c2nnn(C3CCCCC3)c12
inactive: [20] > 100 µM | [3] > 100 µM | [4] > 100 µM | [5] > 100 µM | [6] > 100 µM | [7] > 100 µM | [8] > 100 µM | [9] > 100 µM | [10] > 100 µM | [11] > 100 µM | [12] > 100 µM | [13] > 100 µM | [14] > 100 µM | [15] > 100 µM | [16] > 100 µM | [17] > 100 µM | [18] 77.6 µM | [19] > 100 µM
